Measurements from ChEMBL document CHEMBL2016493, “Design, synthesis, synergistic antimicrobial activity and cytotoxicity of 4-aryl substituted 3,4-dihydropyrimidinones of curcumin” (Bioorg Med Chem Lett, 2012).
Calls of active or inactive are those of the source. The calls are words filed in the database; no cut-off is given here.

Experiments:
[1] = tested on: HepG2
[2] = tested on: Curvularia lunata; test: Antifungal activity against Curvularia lunata MTCC 581 at 40 uM/ml after 48 hrs by paper disc diffusion method; assay type: functional
[3] = tested on: Escherichia coli; test: Antibacterial activity against Escherichia coli ATCC 35218 at 160 uM/ml after 24 hrs by kirby-bauer method; assay type: functional; conditions: ATCC 35218, 24 h, read-out: IZ
[4] = tested on: Trichoderma viride; test: Antifungal activity against Trichoderma viride MTCC 1107 at 20 uM/ml after 48 hrs by paper disc diffusion method; assay type: functional; conditions: MTCC 1107, 48 h, read-out: IZ
[5] = tested on: Burkholderia pseudomallei; test: Antibacterial activity against Burkholderia pseudomallei NTCC 10274 at 20 uM/ml after 24 hrs by kirby-bauer method; assay type: functional
[6] = tested on: Aspergillus niger; test: Antifungal activity against Aspergillus niger MTCC 1108 at 40 uM/ml after 48 hrs by paper disc diffusion method; assay type: functional; conditions: MTCC 1108, 48 h, read-out: IZ
[7] = tested on: Aspergillus flavus; test: Antifungal activity against Aspergillus flavus MTCC 1021 at 40 uM/ml after 48 hrs by paper disc diffusion method; assay type: functional; conditions: MTCC 1021, 48 h, read-out: IZ
[8] = tested on: Salmonella typhimurium; test: Antibacterial activity against Salmonella typhimurium ATCC 23564 at 160 uM/ml after 24 hrs by kirby-bauer method; assay type: functional
[9] = tested on: Aspergillus niger; test: Antifungal activity against Aspergillus niger MTCC 1108 at 80 uM/ml after 48 hrs by paper disc diffusion method; assay type: functional; conditions: MTCC 1108, 48 h, read-out: IZ
[10] = tested on: Aspergillus flavus; test: Antifungal activity against Aspergillus flavus MTCC 1021 at 80 uM/ml after 48 hrs by paper disc diffusion method; assay type: functional; conditions: MTCC 1021, 48 h, read-out: IZ
[11] = tested on: HCT-116
[12] = tested on: Aspergillus flavus; test: Antifungal activity against Aspergillus flavus MTCC 1021 at 20 uM/ml after 48 hrs by paper disc diffusion method; assay type: functional; conditions: MTCC 1021, 48 h, read-out: IZ
[13] = tested on: Burkholderia pseudomallei; test: Antibacterial activity against Burkholderia pseudomallei NTCC 10274 at 40 uM/ml after 24 hrs by kirby-bauer method; assay type: functional
[14] = tested on: Pseudomonas aeruginosa; test: Antibacterial activity against Pseudomonas aeruginosa ATCC 15499 at 40 uM/ml after 24 hrs by kirby-bauer method; assay type: functional; conditions: ATCC 15499, 24 h, read-out: IZ
[15] = tested on: Curvularia lunata; test: Antifungal activity against Curvularia lunata MTCC 581 at 80 uM/ml after 48 hrs by paper disc diffusion method; assay type: functional; conditions: MTCC 581, 48 h, read-out: IZ
[16] = tested on: Staphylococcus aureus; test: Antibacterial activity against Staphylococcus aureus ATCC 11632 at 40 uM/ml after 24 hrs by kirby-bauer method; assay type: functional
[17] = tested on: QG-56; test: Cytotoxicity against human QG56 cells after 48 hrs by MTT assay; assay type: functional, cell-based
[18] = tested on: Staphylococcus aureus; test: Antibacterial activity against Staphylococcus aureus ATCC 11632 at 160 uM/ml after 24 hrs by kirby-bauer method; assay type: functional; conditions: ATCC 11632, 24 h, read-out: IZ
[19] = tested on: Escherichia coli; test: Antibacterial activity against Escherichia coli ATCC 35218 at 20 uM/ml after 24 hrs by kirby-bauer method; assay type: functional; conditions: ATCC 35218, 24 h, read-out: IZ
[20] = tested on: Burkholderia pseudomallei; test: Antibacterial activity against Burkholderia pseudomallei NTCC 10274 at 160 uM/ml after 24 hrs by kirby-bauer method; assay type: functional; conditions: NTCC 10274, 24 h, read-out: IZ
[21] = tested on: Curvularia lunata; test: Antifungal activity against Curvularia lunata MTCC 581 at 160 uM/ml after 48 hrs by paper disc diffusion method; assay type: functional; conditions: MTCC 581, 48 h, read-out: IZ
[22] = tested on: Aspergillus flavus; test: Antifungal activity against Aspergillus flavus MTCC 1021 at 160 uM/ml after 48 hrs by paper disc diffusion method; assay type: functional
[23] = tested on: Aspergillus niger; test: Antifungal activity against Aspergillus niger MTCC 1108 at 20 uM/ml after 48 hrs by paper disc diffusion method; assay type: functional
[24] = tested on: Staphylococcus aureus; test: Antibacterial activity against Staphylococcus aureus ATCC 11632 at 20 uM/ml after 24 hrs by kirby-bauer method; assay type: functional
[25] = tested on: Aspergillus niger; test: Antifungal activity against Aspergillus niger MTCC 1108 at 160 uM/ml after 48 hrs by paper disc diffusion method; assay type: functional
[26] = tested on: Trichoderma viride; test: Antifungal activity against Trichoderma viride MTCC 1107 at 40 uM/ml after 48 hrs by paper disc diffusion method; assay type: functional; conditions: MTCC 1107, 48 h, read-out: IZ
[27] = tested on: Trichoderma viride; test: Antifungal activity against Trichoderma viride MTCC 1107 at 160 uM/ml after 48 hrs by paper disc diffusion method; assay type: functional; conditions: MTCC 1107, 48 h, read-out: IZ
[28] = tested on: Escherichia coli; test: Antibacterial activity against Escherichia coli ATCC 35218 at 80 uM/ml after 24 hrs by kirby-bauer method; assay type: functional; conditions: ATCC 35218, 24 h, read-out: IZ
[29] = tested on: Pseudomonas aeruginosa; test: Antibacterial activity against Pseudomonas aeruginosa ATCC 15499 at 20 uM/ml after 24 hrs by kirby-bauer method; assay type: functional; conditions: ATCC 15499, 24 h, read-out: IZ
[30] = tested on: Curvularia lunata; test: Antifungal activity against Curvularia lunata MTCC 581 at 20 uM/ml after 48 hrs by paper disc diffusion method; assay type: functional
[31] = tested on: Escherichia coli; test: Antibacterial activity against Escherichia coli ATCC 35218 at 40 uM/ml after 24 hrs by kirby-bauer method; assay type: functional; conditions: ATCC 35218, 24 h, read-out: IZ
[32] = tested on: Pseudomonas aeruginosa; test: Antibacterial activity against Pseudomonas aeruginosa ATCC 15499 at 160 uM/ml after 24 hrs by kirby-bauer method; assay type: functional; conditions: ATCC 15499, 24 h, read-out: IZ
[33] = tested on: Trichoderma viride; test: Antifungal activity against Trichoderma viride MTCC 1107 at 80 uM/ml after 48 hrs by paper disc diffusion method; assay type: functional; conditions: MTCC 1107, 48 h, read-out: IZ
[34] = tested on: Staphylococcus aureus; test: Antibacterial activity against Staphylococcus aureus ATCC 11632 at 80 uM/ml after 24 hrs by kirby-bauer method; assay type: functional; conditions: ATCC 11632, 24 h, read-out: IZ
[35] = tested on: Pseudomonas aeruginosa; test: Antibacterial activity against Pseudomonas aeruginosa ATCC 15499 at 80 uM/ml after 24 hrs by kirby-bauer method; assay type: functional; conditions: ATCC 15499, 24 h, read-out: IZ
[36] = tested on: Burkholderia pseudomallei; test: Antibacterial activity against Burkholderia pseudomallei NTCC 10274 at 80 uM/ml after 24 hrs by kirby-bauer method; assay type: functional; conditions: NTCC 10274, 24 h, read-out: IZ
[37] = tested on: Salmonella typhimurium; test: Antibacterial activity against Salmonella typhimurium ATCC 23564 at 80 uM/ml after 24 hrs by kirby-bauer method; assay type: functional; conditions: Salmonella enterica subsp. enterica serovar Typhimurium
[38] = tested on: Salmonella typhimurium; test: Antibacterial activity against Salmonella typhimurium ATCC 23564 at 40 uM/ml after 24 hrs by kirby-bauer method; assay type: functional; conditions: Salmonella enterica subsp. enterica serovar Typhimurium
[39] = tested on: Salmonella typhimurium; test: Antibacterial activity against Salmonella typhimurium ATCC 23564 at 20 uM/ml after 24 hrs by kirby-bauer method; assay type: functional; conditions: Salmonella enterica subsp. enterica serovar Typhimurium

Work on `COc1cc(/C=C/C(=O)C2=C(/C=C/c3ccc(O)c(OC)c3)NC(=S)NC2c2ccc(O)cc2)ccc1O` (centres undefined) yielded an IC50 [1] of 100 uM/ml, a zone of inhibition at 40 µM ([2]; MTCC 581, 48 h, read-out: IZ) of 21 mm and a zone of inhibition at 160 µM [3] of 22 mm. For the same compound, the zone of inhibition at 20 µM [4] was 11 mm, the zone of inhibition at 20 µM ([5]; NTCC 10274, 24 h, read-out: IZ) was 14 mm and the zone of inhibition at 40 µM [6] was 9 mm. The zone of inhibition at 40 µM [7] was 11 mm, the “inhibition zone (IZ)” value ([8]; Salmonella enterica subsp. enterica serovar Typhimurium) was “inactive” and the zone of inhibition at 80 µM [9] was 11 mm. The zone of inhibition at 80 µM [10] was 13 mm, the IC50 [11] was 50 uM/ml and the zone of inhibition at 20 µM [12] was 9 mm. For the same compound, the zone of inhibition at 40 µM ([13]; NTCC 10274, 24 h, read-out: IZ) was 16 mm, the zone of inhibition at 40 µM [14] was 12 mm and the zone of inhibition at 80 µM [15] was 22 mm. For the same compound, the “inhibition zone (IZ)” value [16] was “inactive”, the IC50 [17] was 50 uM/ml and the zone of inhibition at 160 µM [18] was 12 mm. The zone of inhibition at 20 µM [19] was 13 mm, the zone of inhibition at 160 µM [20] was 19 mm and the zone of inhibition at 160 µM [21] was 24 mm. For the same compound, the zone of inhibition at 160 µM ([22]; MTCC 1021, 48 h, read-out: IZ) was 15 mm, the “inhibition zone (IZ)” value [23] was “inactive” and the “inhibition zone (IZ)” value [24] was “inactive”. The zone of inhibition at 160 µM ([25]; MTCC 1108, 48 h, read-out: IZ) was 14 mm, the zone of inhibition [26] was 14 mm and the zone of inhibition at 160 µM [27] was 20 mm. The zone of inhibition at 80 µM [28] was 18 mm, the zone of inhibition at 20 µM [29] was 9 mm and the zone of inhibition at 20 µM ([30]; MTCC 581, 48 h, read-out: IZ) was 20 mm. For the same compound, the zone of inhibition at 40 µM [31] was 17 mm, the zone of inhibition at 160 µM [32] was 18 mm and the zone of inhibition at 80 µM [33] was 17 mm. It also gave a zone of inhibition at 80 µM [34] of 10 mm, a zone of inhibition at 80 µM [35] of 14 mm and a zone of inhibition at 80 µM [36] of 17 mm.

With `COc1cc(/C=C/C(=O)C2=C(/C=C/c3ccc(O)c(OC)c3)NC(=O)NC2c2ccc([N+](=O)[O-])cc2)ccc1O` (centres undefined) the IC50 [1] was 100 uM/ml, the “inhibition zone (IZ)” value [2] was “inactive” and the zone of inhibition at 160 µM [3] was 18 mm. The “inhibition zone (IZ)” value [37] was “inactive”, the zone of inhibition at 20 µM [4] was 17 mm and the “inhibition zone (IZ)” value [5] was “inactive”. For the same compound, the zone of inhibition at 160 µM ([8]; Salmonella enterica, ATCC 23564, 24 h, read-out: IZ) was 10 mm, the IC50 [11] was 50 uM/ml and the “inhibition zone (IZ)” value [38] was “inactive”. The “inhibition zone (IZ)” value [13] was “inactive”, the zone of inhibition at 40 µM [14] was 14 mm and the zone of inhibition at 80 µM [15] was 9 mm. For the same compound, the “inhibition zone (IZ)” value [16] was “inactive”, the “inhibition zone (IZ)” value [39] was “inactive” and the IC50 [17] was 100 uM/ml. For the same compound, the zone of inhibition at 160 µM [18] was 11 mm, the zone of inhibition at 20 µM [19] was 12 mm and the zone of inhibition at 160 µM [20] was 12 mm. For the same compound, the zone of inhibition at 160 µM [21] was 11 mm, the “inhibition zone (IZ)” value [22] was “inactive” and the “inhibition zone (IZ)” value [24] was “inactive”. For the same compound, the “inhibition zone (IZ)” value [25] was “inactive”, the zone of inhibition [26] was 19 mm and the zone of inhibition at 160 µM [27] was 21 mm. For the same compound, the zone of inhibition at 80 µM [28] was 16 mm, the zone of inhibition at 20 µM [29] was 9 mm and the “inhibition zone (IZ)” value [30] was “inactive”. For the same compound, the zone of inhibition at 40 µM [31] was 15 mm, the zone of inhibition at 160 µM [32] was 19 mm and the zone of inhibition at 80 µM [33] was 21 mm. For the same compound, the zone of inhibition at 80 µM [34] was 10 mm, the zone of inhibition at 80 µM [35] was 18 mm and the zone of inhibition at 80 µM [36] was 10 mm.
